Data from patent US7598397B2, “Sulfonamide peri-substituted bicyclics for occlusive artery disease” (deCODE genetics ehf, priority 2004, dated 2009).
pIC50: −log10 of the molar value.

Target: T1, prostanoid EP3 receptors (Homo sapiens, UniProt P43115)
T1 sequence (P43115 1-390): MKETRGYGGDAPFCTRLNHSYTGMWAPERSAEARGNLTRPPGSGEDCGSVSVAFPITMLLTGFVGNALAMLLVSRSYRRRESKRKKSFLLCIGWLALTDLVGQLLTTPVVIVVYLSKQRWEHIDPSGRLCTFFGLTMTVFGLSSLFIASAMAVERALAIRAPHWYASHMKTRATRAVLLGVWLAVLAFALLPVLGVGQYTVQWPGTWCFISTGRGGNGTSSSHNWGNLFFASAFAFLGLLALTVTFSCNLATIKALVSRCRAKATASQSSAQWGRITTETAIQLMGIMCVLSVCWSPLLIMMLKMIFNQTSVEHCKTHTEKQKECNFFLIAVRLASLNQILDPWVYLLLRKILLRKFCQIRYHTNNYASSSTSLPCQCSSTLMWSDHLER
Experiment: binding on prostanoid EP3 receptors (method of Abramovitz et al.)
Settings: read-out: Activity (EP3 receptor binding, IC50 class)
Procedure: The compounds of the invention were assayed for their binding on prostanoid EP3 receptors according to the method of Abramovitz et al. [Bioch. Biophys.

Structure (SMILES) | pIC50
Cn1cc(C=CC(=O)NS(=O)(=O)c2ccc(F)cc2)c2c(Oc3ccc4ccccc4c3)cccc21 [Compound P351] | > 6.00
Cn1cc(C=CC(=O)NS(=O)(=O)c2ccccc2Cl)c2c(Oc3ccc4ccccc4c3)cccc21 [Compound P352] | > 6.00
Cn1cc(C=CC(=O)NS(=O)(=O)c2cccc(Cl)c2)c2c(Oc3ccc4ccccc4c3)cccc21 [Compound P353] | > 6.00
Cn1cc(C=CC(=O)NS(=O)(=O)c2ccc(Cl)c(Cl)c2)c2c(Oc3ccc4ccccc4c3)cccc21 [Compound P355] | > 6.00
Cn1cc(C=CC(=O)NS(=O)(=O)c2ccc(Cl)cc2Cl)c2c(Oc3ccc4ccccc4c3)cccc21 [Compound P356] | > 6.00
Cn1cc(C=CC(=O)NS(=O)(=O)c2cc(Cl)cc(Cl)c2)c2c(Oc3ccc4ccccc4c3)cccc21 [Compound P357] | > 6.00
Cn1cc(C=CC(=O)NS(=O)(=O)c2ccc(F)cc2F)c2c(Oc3ccc4ccccc4c3)cccc21 [Compound P358] | > 6.00
Cn1cc(C=CC(=O)NS(=O)(=O)c2cc(F)ccc2F)c2c(Oc3ccc4ccccc4c3)cccc21 [Compound P359] | > 6.00
Cn1cc(C=CC(=O)NS(=O)(=O)c2c(F)cccc2F)c2c(Oc3ccc4ccccc4c3)cccc21 [Compound P360] | > 6.00
Cn1cc(C=CC(=O)NS(=O)(=O)c2cc(F)cc(F)c2)c2c(Oc3ccc4ccccc4c3)cccc21 [Compound P361] | > 6.00
Cn1cc(CCC(=O)NS(=O)(=O)c2ccc(F)c(F)c2)c2c(Oc3ccc4ccccc4c3)cccc21 [Compound P362] | > 6.00
Cn1cc(C=CC(=O)NS(=O)(=O)c2cccc(F)c2)c2c(Oc3ccc4ccccc4c3)cccc21 [Compound P363] | > 6.00
Cn1cc(C=CC(=O)NS(=O)(=O)c2ccccc2F)c2c(Oc3ccc4ccccc4c3)cccc21 [Compound P364] | > 6.00
Cn1cc(C=CC(=O)NS(=O)(=O)c2ccc(Cl)cc2)c2c(Oc3ccc4ccccc4c3)cccc21 [Compound P365] | > 6.00
COc1ccc(S(=O)(=O)NC(=O)C=Cc2cn(C)c3cccc(Oc4ccc5ccccc5c4)c23)cc1 [Compound P366] | > 6.00
Cn1cc(C=CC(=O)NS(=O)(=O)c2c(F)c(F)c(F)c(F)c2F)c2c(Oc3ccc4ccccc4c3)cccc21 [Compound P373] | > 6.00
Cn1cc(C=CC(=O)NS(=O)(=O)c2ccc(F)c(F)c2)c2c(Oc3ccc4ncccc4c3)cccc21 [Compound P376] | > 6.00
Cn1cc(C=CC(=O)NS(=O)(=O)c2ccc(F)c(F)c2)c2c(Oc3cnc4ccccc4n3)cccc21 [Compound P393] | > 6.00
Cc1cn(Cc2cn3ccccc3n2)c2c(/C=C/C(=O)NS(=O)(=O)c3cccc(Cl)c3)cc(F)cc12 [Compound P400] | > 6.00
Cc1cn(Cc2cn3ccccc3n2)c2c(C=CC(=O)NS(=O)(=O)c3cccc(F)c3)cc(F)cc12 [Compound P401] | > 6.00
Cc1cn(Cc2cn3ccccc3n2)c2c(C=CC(=O)NS(=O)(=O)c3ccc(Cl)cc3)cc(F)cc12 [Compound P405] | > 6.00
Cc1cn(Cc2cn3ccccc3n2)c2c(C=CC(=O)NS(=O)(=O)c3ccc(Cl)c(Cl)c3)cc(F)cc12 [Compound P406] | > 6.00
Cc1cn(Cc2cn3ccccc3n2)c2c(C=CC(=O)NS(=O)(=O)c3ccccc3F)cc(F)cc12 [Compound P409] | > 6.00
CC12CCCC(CCC(=O)NS(=O)(=O)c3cc(Cl)c(Cl)s3)C1N(Cc1ccc(F)c(F)c1)C(=O)C2 (stereo not shown) [Compound P415] | > 6.00

More lines, now with the values ahead:

pIC50 | Structure (SMILES)
> 6.00 | Cc1noc(C)c1Cn1cc(C)c2cc(F)cc(C=CC(=O)NS(=O)(=O)c3cc(F)c(F)cc3F)c21 [Compound P370]
> 6.00 | COc1cc(Cn2cc(C)c3cc(F)cc(C=CC(=O)NS(=O)(=O)c4ccc(F)c(F)c4)c32)cc(OC)c1 [Compound P374]
> 6.00 | COc1cc(Cn2cc(C)c3cc(F)cc(C=CC(=O)NS(=O)(=O)c4cc(F)c(F)cc4F)c32)cc(OC)c1 [Compound P375]
> 6.00 | Cn1cc(C=CC(=O)NS(=O)(=O)c2cc(F)c(F)cc2F)c2c(Oc3ccc4ncccc4c3)cccc21 [Compound P377]
> 6.00 | Cc1cn(CCC(=O)NS(=O)(=O)c2cc(F)c(F)cc2F)c2c(Oc3ccc4ccccc4c3)cc(F)cc12 [Compound P378, 2,4,5-Trifluoro-N-{3-[5-fluoro-3-methyl-7-(naphthalen-2-yloxy)-indol-1-yl]-propionyl}-benzenesulfonamide]
> 6.00 | Cc1cn(CCC(=O)NS(=O)(=O)c2ccc(F)c(F)c2)c2c(Oc3ccc4ccccc4c3)cc(F)cc12 [Compound P379]
> 6.00 | Cc1cn(CCC(=O)NS(=O)(=O)c2cccc(Cl)c2)c2c(Oc3ccc4ccccc4c3)cc(F)cc12 [Compound P381]
> 6.00 | Cc1cn(CCC(=O)NS(=O)(=O)c2cc(F)c(F)cc2F)c2c(Oc3ccc(Cl)cc3Cl)cc(F)cc12 [Compound P382]
> 6.00 | Cc1cn(CCC(=O)NS(=O)(=O)c2ccc(F)c(F)c2)c2c(Oc3ccc(Cl)cc3Cl)cc(F)cc12 [Compound P383]
> 6.00 | Cc1cn(CCC(=O)NS(=O)(=O)c2cc(Cl)c(Cl)s2)c2c(Oc3ccc(Cl)cc3Cl)cc(F)cc12 [Compound P384]
> 6.00 | Cc1cn(CCC(=O)NS(=O)(=O)c2cccc(Cl)c2)c2c(Oc3ccc(Cl)cc3Cl)cc(F)cc12 [Compound P385]
> 6.00 | Cc1cn(CCC(=O)NS(=O)(=O)c2cc(F)c(F)cc2F)c2c(Oc3ccc(Cl)c(Cl)c3)cc(F)cc12 [Compound P386]
> 6.00 | Cc1cn(CCC(=O)NS(=O)(=O)c2ccc(F)c(F)c2)c2c(Oc3ccc(Cl)c(Cl)c3)cc(F)cc12 [Compound P387]
> 6.00 | Cc1cn(CCC(=O)NS(=O)(=O)c2cc(Cl)c(Cl)s2)c2c(Oc3ccc(Cl)c(Cl)c3)cc(F)cc12 [Compound P388]
> 6.00 | Cc1cn(Cc2ccccc2C#N)c2c(/C=C/C(=O)NS(=O)(=O)c3cc(Cl)c(Cl)s3)cc(F)cc12 [Compound P389]
> 6.00 | Cn1cc(C=CC(=O)NS(=O)(=O)c2cc(F)c(F)cc2F)c2c(Oc3cnc4ccccc4n3)cccc21 [Compound P394]
> 6.00 | O=Cc1cn(Cc2ccc(Cl)cc2Cl)c2c(C=CC(=O)NS(=O)(=O)c3cc(Cl)c(Cl)s3)cc(F)cc12 [Compound P396]
> 6.00 | O=C(C=Cc1cc(F)cc2c(CO)cn(Cc3ccc(Cl)cc3Cl)c12)NS(=O)(=O)c1cc(Cl)c(Cl)s1 [Compound P397]
> 6.00 | O=C(C=Cc1cc(F)cc2c(C(=O)O)cn(Cc3ccc(Cl)cc3Cl)c12)NS(=O)(=O)c1cc(Cl)c(Cl)s1 [Compound P398]
> 6.00 | Cc1cn(Cc2cn3ccccc3n2)c2c(C=CC(=O)NS(=O)(=O)c3cc(F)c(F)cc3F)cc(F)cc12 [Compound P402]
> 6.00 | Cc1cn(Cc2cn3ccccc3n2)c2c(C=CC(=O)NS(=O)(=O)c3cc(F)ccc3F)cc(F)cc12 [Compound P407]
> 6.00 | Cc1cn(Cc2cn3ccccc3n2)c2c(C=CC(=O)NS(=O)(=O)c3cc(Cl)cc(Cl)c3)cc(F)cc12 [Compound P408]
> 6.00 | CC12CCCC(CCC(=O)NS(=O)(=O)c3cc(F)c(F)cc3F)C1N(Cc1ccc(F)c(F)c1)C(=O)C2 (stereo not shown) [Compound P410]
> 6.00 | Cn1cc(CCC(=O)NS(=O)(=O)c2cc(F)c(F)cc2F)c2c(Oc3ccc4ccccc4c3)cccc21 [Compound P412]
> 6.00 | Cc1cn(Cc2cn3ccccc3n2)c2c(C=CC(=O)NS(=O)(=O)c3ccc(F)cc3F)cc(F)cc12 [Compound P413]
